Values joined by “and” are separate entries in the source; they are usually repeats but may differ in a detail not shown here. Equal entries are not always repeated.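 Five concentrations, 48 hours, 96-well plates. GI50 = concentration required for 50% inhibition of growth. TGI: total growth inhibition.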 A value given as a limit tells only on which side of the number the result lay.

The subject of this experiment is MDA-MB-468 breast. The experiment in a line: DTP human tumour cell line panel, 48 h.
By GI50 is commonly meant the concentration giving 50% growth inhibition. The term TGI denotes the concentration giving total growth inhibition. High values mean less potent growth arrest, low ones more potent growth arrest. Take `O=CN1N=C(c2ccc(Nc3ccnc4cc(Cl)ccc34)cc2)CC1c1ccc(Cl)cc1` (stereo not given): the concentration for 50% growth inhibition (GI50) was 0.318 µM and the concentration for total growth inhibition (TGI) was determined as 8.33 µM.
As to `Nc1nc(Cl)nc2c1ncn2[C@@H]1O[C@H](COS(N)(=O)=O)[C@@H](O)[C@H]1O`, the GI50 was 0.0176 µM; the TGI is 0.0468 µM and 0.0396 µM.
With `Nc1ccc(-c2nnc(SCc3ccc(O)c4ncccc34)n2-c2ccccc2)cc1`, the GI50 is 0.0358 µM and the TGI was found to be 1.85 µM.
With `CC1=NN(C(=O)c2nn(-c3ccc(Cl)cc3)cc2O)C(=O)C1`, the GI50 was 4.92 µM and the TGI amounted to 97 µM.
For `Cc1ccc(-c2c3c(N)c4c(nc3nc3c2c(C)nn3-c2ccccc2)CCC4)cc1` the same measures were 1.97 µM and 5.15 µM.
With `O=c1[nH]nc(-c2ccccc2)c2c(-c3ccccc3)onc12`, the GI50 is 0.424 µM and the TGI is more than 100 µM.
For `O=C(N/N=C/c1ccc(Br)s1)c1[nH]c2ccc(Br)cc2c1-c1ccccc1` the same measures were 0.327 µM and 4.89 µM.
For `Cc1ccc(S(=O)(=O)Nc2cc(Sc3ccccc3)c(O)c3ccccc23)cc1` the same measures were 1.38 µM and 3.36 µM.
In the same order, the values of `O=C1NC(SCc2ccc(F)cc2)=N/C1=C/c1cccc(OCc2ccc(Cl)cc2)c1` are 15.8 µM and more than 100 µM.
On to `NS(=O)(=O)c1ccc(N2N=C(c3cccs3)CC2c2ccccc2O)cc1` (stereo not given), for which the GI50 is 0.717 µM and the TGI worked out at 3.89 µM.
For `N/C(=N\c1nc2c(Br)cccc2s1)C(Br)Br` the same measures were 2.57 µM and 9.69 µM.
For `Cc1c(C(N)=O)sc2c1c(=O)n(Cc1ccccc1)c1nnc(S(=O)(=O)CC(=O)Nc3ccc(Cl)cc3)n21` the same measures were 12.7 µM and 36.3 µM.
For `Cn1ncnc1C1c2n[nH]c(=O)c3cc(F)cc(c23)NC1c1ccc(F)cc1` (stereo not given) the same measures were 3.74 µM and more than 100 µM.
`CN(C)c1ncnc2c1ccn2C1OC(CO)C(O)C1O` (stereo not given): the GI50 was 0.231 µM and the total growth inhibition concentration (TGI) was 1 µM.
For `O=C1C=C(OCCCl)C(=O)c2c(O)ccc(O)c21` the same measures were 1.64 µM and 3.86 µM.
For `CN(CCCN(C)CCC1CCCCC1)CCC1CCCCC1` the same measures were 1.3 µM and 2.66 µM.
In the same order, the values of `Oc1ccc(O)c2c1C1(Cl)C(Cl)=C(Cl)C2(Cl)C1(Cl)Cl` are 3.71 µM and 12.8 µM.
For the molecule `NCCSC(C[N+](=O)[O-])c1ccccc1Cl` (stereo not given), the GI50 was 2.38 µM and the TGI came to 6.5 µM.
In the same order, the values of `COc1cc2c3c(n(CCCNCC4CC4)c(=O)c2cc1OC)-c1cc2c(cc1C3=O)OCO2` are 1.54 µM and 9.66 µM.
For `COC(=O)Nc1nc2ccc(S(=O)(=O)c3ccc(NC(=O)Nc4cc(C(F)(F)F)ccc4F)cc3)cc2[nH]1` the same measures were more than 25 µM and more than 25 µM.
Take `COc1ccc2c(c1)C=C1CSCC3=Cc4cc(OC)ccc4OC13O2`: the GI50 was 0.347 µM.
In the case of `COc1cc2nc(N3CCC[C@@H](NC4=CC(=O)c5ccccc5C4=O)C3)nc(N)c2cc1OC`, the GI50 is 1.81 µM and the total growth inhibition concentration (TGI) amounted to 3.77 µM.
In the same order, the values of `CCCC(CCC)C(=O)OCC1(CO)C/C(=C\c2ccc(C(F)(F)F)cc2)C(=O)O1` (stereo not given) are 16.6 µM and 32.9 µM.
Consider `O=C1COCCN1c1ccc(NCc2cn(C(=O)c3ccc(Cl)cc3)c3ccccc23)cc1`, for which the concentration for 50% growth inhibition (GI50) is 0.101 µM and the TGI amounted to 0.286 µM.
With `CCc1nc(N)nc(N)c1C#CC(C)c1cc(-c2ccnc(C)c2)c2oc(C)nc2c1` (stereo not given), the GI50 is 0.103 µM and the concentration for total growth inhibition (TGI) stood at 3 µM.
For `C=C1C(=O)O[C@H]2[C@H]1CC/C(CNC(=O)/C=C/c1ccc(Cl)cc1Cl)=C\CC[C@@]1(C)O[C@@H]21`, the 50% growth inhibitory concentration (GI50) was 0.396 µM and the TGI stood at 1.47 µM.
For `O=C(Cn1c2ccccc2c2ccncc21)N/N=C\c1ccc2ccccc2c1` the same measures were 24.4 µM and 65.5 µM.
In the same order, the values of `CCCCN(CCCC)CCC(O)c1cc2ccc(C(F)(F)F)cc2c2cc(C(F)(F)F)ccc12` (stereo not given) are 1.68 µM and 3.46 µM.
In the same order, the values of `CNC(=O)c1cncc(/C=C/c2c(Cl)cccc2Cl)c1` are 4.08 µM and more than 19.1 µM.
For `CNc1ncc2cc(Oc3ccc(F)cc3F)c(=O)n(C)c2n1`, the GI50 was more than 25 µM and the TGI is more than 25 µM.
Consider `Cc1ccccc1NC(=O)c1cc2ccccc2cc1O`, for which the GI50 is 2.64 µM and the total growth inhibition concentration (TGI) turned out to be 7.89 µM.
As to `c1ccc(/C(=N\Nc2ccc3ccccc3n2)c2ccccn2)cc1`, the GI50 is 0.364 µM and the TGI worked out at 5.82 µM.
Consider `O=C(CN1C(=O)S/C(=C\C(Cl)=C\c2ccccc2)C1=O)NCCCn1ccnc1`, for which the GI50 was 1.35 µM and the TGI turned out to be 4.19 µM.
In the same order, the values of `COc1cc(NC(=O)c2cc(O)c(C/C=C(\C)CCC=C(C)C)c(O)c2)cc2c1O[C@]1(C)CC[C@@H](O)C(C)(C)[C@H]1C2` are 2 µM and 8.08 µM.
In the same order, the values of `CCc1c2c(nc3ccc(OCc4ccc(B5OC(C)(C)C(C)(C)O5)cc4)cc13)-c1cc3c(c(=O)n1C2)COC(=O)[C@]3(O)CC` are less than 0.01 µM and 0.0432 µM.
Take `O=[N+]([O-])c1cc2c(ccc3occc32)o1`: the GI50 is 3.18 µM and the TGI was 17.1 µM.
For `CN(C)N=Nc1nn(C(=O)Nc2ccc(Cc3ccccc3)cc2)c2ccccc12` the same measures were 2.94 µM and more than 100 µM.
For `COc1ccc(CN=C(N)N=C(N)N)cc1OC` the same measures were 47.6 µM and 477 µM.

The values are drawn from PubChem BioAssay (NCI).
